The structures appear in SMILES notation.

Usually IC50 stands for the concentration at which inhibition is half-maximal.

The first test deals with T1, human GluN1/GluN2B NMDA receptors (Homo sapiens, UniProt Q13224).
T1 construct: expressed in transfected cells
T1 sequence (Q13224 27-1484, other chains not shown): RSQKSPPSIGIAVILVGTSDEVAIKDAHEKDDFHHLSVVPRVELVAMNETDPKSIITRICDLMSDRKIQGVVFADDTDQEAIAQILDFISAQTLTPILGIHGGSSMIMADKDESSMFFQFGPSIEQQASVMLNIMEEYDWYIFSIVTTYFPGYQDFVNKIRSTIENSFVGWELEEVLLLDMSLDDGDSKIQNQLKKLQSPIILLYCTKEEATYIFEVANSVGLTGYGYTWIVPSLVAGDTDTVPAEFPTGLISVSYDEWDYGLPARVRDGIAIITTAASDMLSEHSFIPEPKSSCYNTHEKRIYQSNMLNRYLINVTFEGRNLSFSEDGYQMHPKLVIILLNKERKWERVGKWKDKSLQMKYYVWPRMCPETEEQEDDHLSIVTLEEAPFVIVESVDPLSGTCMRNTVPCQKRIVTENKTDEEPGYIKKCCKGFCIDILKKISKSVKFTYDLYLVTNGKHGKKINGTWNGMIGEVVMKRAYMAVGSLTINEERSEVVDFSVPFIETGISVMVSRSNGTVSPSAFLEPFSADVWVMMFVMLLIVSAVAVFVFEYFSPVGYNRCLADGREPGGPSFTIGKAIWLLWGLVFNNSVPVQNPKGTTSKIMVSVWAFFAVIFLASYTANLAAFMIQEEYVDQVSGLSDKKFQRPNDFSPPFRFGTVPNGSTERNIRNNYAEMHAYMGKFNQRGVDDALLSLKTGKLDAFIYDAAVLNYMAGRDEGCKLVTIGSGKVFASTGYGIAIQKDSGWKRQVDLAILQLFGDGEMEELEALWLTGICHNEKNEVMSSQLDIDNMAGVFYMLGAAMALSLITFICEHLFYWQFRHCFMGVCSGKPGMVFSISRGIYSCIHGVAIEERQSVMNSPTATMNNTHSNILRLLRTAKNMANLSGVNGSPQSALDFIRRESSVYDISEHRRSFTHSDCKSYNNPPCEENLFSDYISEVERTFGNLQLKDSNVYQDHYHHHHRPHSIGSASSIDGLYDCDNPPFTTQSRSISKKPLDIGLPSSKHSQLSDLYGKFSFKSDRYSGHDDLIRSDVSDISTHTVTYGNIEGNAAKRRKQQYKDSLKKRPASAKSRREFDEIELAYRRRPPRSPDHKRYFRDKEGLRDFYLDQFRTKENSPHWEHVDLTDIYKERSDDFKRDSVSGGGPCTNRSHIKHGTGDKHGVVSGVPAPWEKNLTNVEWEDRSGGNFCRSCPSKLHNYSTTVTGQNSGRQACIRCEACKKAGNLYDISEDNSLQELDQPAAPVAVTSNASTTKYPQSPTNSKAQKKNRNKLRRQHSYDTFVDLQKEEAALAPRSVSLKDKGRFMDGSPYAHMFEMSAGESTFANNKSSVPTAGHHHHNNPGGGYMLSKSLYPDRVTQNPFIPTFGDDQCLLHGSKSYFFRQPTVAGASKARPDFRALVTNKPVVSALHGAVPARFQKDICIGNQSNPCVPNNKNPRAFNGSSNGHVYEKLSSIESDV
Nature of the test: Cell-based calcium flux (FLIPR) assay on cloned human NR1/NR2B ion channels expressed in mammalian cells (standard and HTS buffer variants).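 Further: stable Tet-On inducible cell line, Ca2+ influx triggered by glutamate at about EC40 plus 10 µM glycine, fluorescent dye read-out over 5 min, normalized to control wells.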 The following applies: HTS assay buffer (1.5 mM MgCl2 dye loading; 150 mM NaCl, 3 mM KCl assay buffer), human GluN1/GluN2B cells, read-out: NR2B IC50 (μM) HTS assay. A general note: A change in cytosolic calcium serves as a functional read-out for many receptors and channels.
Consider `COCCn1c(=O)[nH]c2ncc(-c3ccc(F)cc3C)cc21` [Example 2, 6-(4-Fluoro-2-methyl-phenyl)-1-(2-methoxyethyl)-3H-imidazo[4,5-b]pyridin-2-one], for which the IC50 came out at 2.06 µM.

Staying with this test, now noted: standard assay buffer (0.5 mM MgCl2 dye loading; 137 mM NaCl, 4 mM KCl assay buffer), human GluN1/GluN2B cells, read-out: NR2B IC50 (μM) standard assay.
In the case of `COc1ccc(-c2cnc3[nH]c(=O)n(CC(=O)N4CCOCC4)c3c2)cc1` [Example 1, 6-(4-Methoxyphenyl)-1-(2-morpholino-2-oxo-ethyl)-3H-imidazo[4,5-b]pyridin-2-one], the IC50 turned out to be 2.74 µM. With `CCNC(=O)Cn1c(=O)[nH]c2ncc(-c3ccc(F)cc3C)cc21` [Example 3, N-Ethyl-2-[6-(4-fluoro-2-methyl-phenyl)-2-oxo-3H-imidazo[4,5-b]pyridin-1-yl]acetamide], the IC50 came to 0.088 µM.

Consider `Cc1cc(-c2cnc3c(c2)n(Cc2ccccn2)c(=O)n3C)ccc1F` [Example 6, 6-(4-Fluoro-3-methyl-phenyl)-3-methyl-1-(2-pyridylmethyl)imidazo[4,5-b]pyridin-2-one], for which the IC50 is 0.048 µM. For the molecule `Cn1c(=O)n(Cc2ccncn2)c2cc(-c3cccc(F)c3)cnc21` [Example 7, 6-(3-Fluorophenyl)-3-methyl-1-(pyrimidin-4-ylmethyl)imidazo[4,5-b]pyridin-2-one], the IC50 is 6.77 µM.

On to `Cc1cc(Cn2c(=O)n(C)c3ncc(-c4ccc(F)c(F)c4)cc32)no1` [Example 8, 6-(3,4-Difluorophenyl)-3-methyl-1-[(5-methylisoxazol-3-yl)methyl]imidazo[4,5-b]pyridin-2-one], for which the 50% inhibitory concentration (IC50) came out at 0.104 µM. `CN(C)C(=O)Cn1c(=O)n(C)c2ncc(-c3ccc(Cl)s3)cc21` [Example 9, 2-[6-(5-Chloro-2-thienyl)-3-methyl-2-oxo-imidazo[4,5-b]pyridin-1-yl]-N,N-dimethyl-acetamide]: the IC50 came to 0.005 µM. Still for that read-out and setting: with `Cn1c(=O)n(CC(=O)N2CC(F)C2)c2cc(-c3ccc(C(F)F)s3)cnc21` [Example 10, 6-[5-(Difluoromethyl)-2-thienyl]-1-[2-(3-fluoroazetidin-1-yl)-2-oxo-ethyl]-3-methyl-imidazo[4,5-b]pyridin-2-one] the figure was 0.01 µM.

For the molecule `Cc1cc(Cn2c(=O)[nH]c3ncc(-c4ccccc4)cc32)no1` [Example 11, 1-[(5-Methylisoxazol-3-yl)methyl]-6-phenyl-3H-imidazo[4,5-b]pyridin-2-one], the IC50 came to 0.088 µM.

Regarding `Cc1cc(Cn2c(=O)[nH]c3ncc(-c4ccc(F)cc4)cc32)no1` [Example 12, 6-(4-Fluorophenyl)-1-[(5-methylisoxazol-3-yl)methyl]-3H-imidazo[4,5-b]pyridin-2-one], the IC50 was determined as 0.029 µM. The same measure, in the same setting: with `Cc1nnc(Cn2c(=O)[nH]c3ncc(-c4ccc(F)cc4)cc32)o1` [Example 13, 6-(4-Fluorophenyl)-1-[(5-methyl-1,3,4-oxadiazol-2-yl)methyl]-3H-imidazo[4,5-b]pyridin-2-one] the figure was 0.076 µM. On the same count and under the same terms, with `Cc1csc(-c2cnc3c(c2)n(Cc2cc(C)on2)c(=O)n3C)c1` [Example 14, 3-Methyl-1-[(5-methylisoxazol-3-yl)methyl]-6-(4-methyl-2-thienyl)imidazo[4,5-b]pyridin-2-one] the figure was 0.097 µM; with `Cn1cc(Cn2c(=O)[nH]c3ncc(-c4ccc(F)cc4)cc32)cn1` [Example 15, 6-(4-Fluorophenyl)-1-[(1-methylpyrazol-4-yl)methyl]-3H-imidazo[4,5-b]pyridin-2-one], 0.204 µM.

As to `Cc1cc(Cn2c(=O)[nH]c3ncc(-c4ccc(F)cc4)cc32)nn1C` [Example 16, 1-[(1,5-Dimethylpyrazol-3-yl)methyl]-6-(4-fluorophenyl)-3H-imidazo[4,5-b]pyridin-2-one], the IC50 amounted to 8.9 µM. Still for that read-out and setting: the result for `O=c1[nH]c2ncc(-c3cccc(C(F)(F)F)c3)cc2n1CCN1CCC1` [Example 17, 1-[2-(Azetidin-1-yl)ethyl]-6-[3-(trifluoromethyl)phenyl]-3H-imidazo[4,5-b]pyridin-2-one] reads 0.146 µM; that for `Cn1c(=O)n(CCN2CCC2)c2cc(-c3cccc(C(F)(F)F)c3)cnc21` [Example 18, 1-[2-(Azetidin-1-yl)ethyl]-3-methyl-6-[3-(trifluoromethyl)phenyl]imidazo[4,5-b]pyridin-2-one], 0.7 µM; that for `Cc1cc(Cn2c(=O)[nH]c3ncc(-c4cccc(C(F)(F)F)c4)cc32)no1` [Example 19, 1-[(5-Methylisoxazol-3-yl)methyl]-6-[3-(trifluoromethyl)phenyl]-3H-imidazo[4,5-b]pyridin-2-one], 0.124 µM. On the same count and under the same terms, the result for `O=c1[nH]c2ncc(-c3cccc(C(F)(F)F)c3)cc2n1Cc1cccc(Cl)c1` [Example 21, 1-[(3-Chlorophenyl)methyl]-6-[3-(trifluoromethyl)phenyl]-3H-imidazo[4,5-b]pyridin-2-one] reads 1.34 µM; that for `COc1ncccc1Cn1c(=O)[nH]c2ncc(-c3cccc(C(F)(F)F)c3)cc21` [Example 22, 1-[(2-Methoxy-3-pyridyl)methyl]-6-[3-(trifluoromethyl)phenyl]-3H-imidazo[4,5-b]pyridin-2-one], 26.7 µM; that for `O=c1[nH]c2ncc(-c3cccc(C(F)(F)F)c3)cc2n1Cc1ccncn1` [Example 23, 1-(Pyrimidin-4-ylmethyl)-6-[3-(trifluoromethyl)phenyl]-3H-imidazo[4,5-b]pyridin-2-one], 0.22 µM. In the case of `O=C(Cn1c(=O)[nH]c2ncc(-c3cccc(C(F)(F)F)c3)cc21)N1CCC1` [Example 25, 1-[2-(Azetidin-1-yl)-2-oxo-ethyl]-6-[3-(trifluoromethyl)phenyl]-3H-imidazo[4,5-b]pyridin-2-one], the IC50 stood at 0.07 µM. The same measure, in the same setting: with `CN(C)C(=O)Cn1c(=O)[nH]c2ncc(-c3ccc(C(F)(F)F)s3)cc21` [Example 26, N,N-Dimethyl-2-[2-oxo-6-(5-(trifluoromethyl)-2-thienyl]-3H-imidazo[4,5-b]pyridin-1-yl)acetamide] the figure was 0.012 µM. The same measure, in the same setting: the result for `Cn1c(=O)n(CC(=O)N2CCC2)c2cc(-c3ccc(C(F)(F)F)s3)cnc21` [Example 27, 1-[2-(Azetidin-1-yl)-2-oxo-ethyl]-3-methyl-6-[5-(trifluoromethyl)-2-thienyl]imidazo[4,5-b]pyridin-2-one] reads 0.031 µM. The same measure, in the same setting: with `CN(C)C(=O)Cn1c(=O)n(C)c2ncc(-c3ccc(C(F)(F)F)s3)cc21` [Example 28, N,N-Dimethyl-2-[3-methyl-2-oxo-6-[5-(trifluoromethyl)-2-thienyl]imidazo[4,5-b]pyridin-1-yl]acetamide] the figure was 0.034 µM; with `Cc1ccc(C(F)(F)F)cc1-c1cnc2[nH]c(=O)n(CC(=O)N3CCC3)c2c1` [Example 29, 1-[2-(Azetidin-1-yl)-2-oxo-ethyl]-6-[2-methyl-5-(trifluoromethyl)phenyl]-3H-imidazo[4,5-b]pyridin-2-one], 0.396 µM. Regarding `CCC(=O)Cn1c(=O)[nH]c2ncc(-c3ccc(F)c(C)c3F)cc21` [Example 30, 6-(2,4-Difluoro-3-methyl-phenyl)-1-(2-oxobutyl)-3H-imidazo[4,5-b]pyridin-2-one], the half-maximal inhibitory concentration (IC50) is 0.011 µM.

Turning to `O=c1[nH]cccc1Cn1c(=O)[nH]c2ncc(-c3cccc(C(F)(F)F)c3)cc21` [Example 32, 1-[(2-Oxo-1H-pyridin-3-yl)methyl]-6-[3-(trifluoromethyl)phenyl]-3H-imidazo[4,5-b]pyridin-2-one], the half-inhibitory concentration (IC50) was found to be 8.33 µM.

The values above are taken from patent US11759455B2, “Substituted 1H-imidazo[4,5-b]pyridin-2(3H)-ones and their use as GLUN2B receptor modulators” (JANSSEN PHARMACEUTICA NV, priority 2016, dated 2023).
